From patent US20190142835A1, “INHIBITION OF AUTOPHAGY USING PHOSPHOLIPASE A2 INHIBITORS” (OREGON HEALTH & SCIENCE UNIVERSITY, priority 2017, published 2019)

Assays:
[1] = test system: human RCC and MPN cell lines; test: Suppression of JAK and STAT3 phosphorylation; format: cell-based; conditions: multiple human RCC and MPN cell lines
Description: (§1) Cells were plated in 6 well dishes and treated the following day with the indicated agents. Treatments were for 24 hours, after which cells were washed with ice cold PBS and lysed with RIPA buffer (Sigma). Phosphatase inhibitor cocktail set II and protease inhibitor cocktail set III (EMD Millipore) were added at the time of lysis. Lysates were centrifuged at 15,000 g×10 min at 4 degrees C. Protein concentrations were calculated based on a BCA assay (Thermo Scientific) generated standard curve. Proteins were resolved using the NuPAGE Novex Mini Gel system on 4% to 12% Bis-Tris Gels (Invitrogen). For western blotting, equal amounts of cell lysates (15-20 μg of protein) were resolved with SDSPAGE, and transferred to membranes. The membrane was probed with primary antibodies, washed, and then incubated with corresponding fluorescent secondary antibodies and washed. The fluorescent signal was captured using LI-COR (Lincoln, Nebr.) Odyssey Imaging System, and fluorescent intensity was quantified using the Odyssey software where indicated. The following antibodies were used for Western blots: p-S6 (S240/244), S6, LC3B, p-Akt(S473), p-Akt(T308), Akt, cleaved caspase3 (Cell Signaling Technologies). p-Stat3 (Y705), Stat3 and β-actin (AC15) (Abcam). Ki67 (Dako) and cleaved caspase3 (Cell Signaling Technologies) were used for immunohistochemistry. […] BX795 and GDC0941 were purchased from Sigma.

[2] = test system: ACHN cells; test: Autophagy flux validation (immunofluorescence, immunoblot, mCherry-EGFP-LC3 reporter, MDC, TEM); format: cell-based, human
Excerpt: Next, we stably expressed a mChery-EGFP-LC3 reported in ACHN cells. This reporter for autophagic flux takes advantage of the fact that EGFP fluorescence is quenched in the acidic environment of the autolysosome relative to mCherry. […] This method to measure flux has been extensively validated and accurately quantitates autophagic flux induction by multiple stimuli and chemical and genetic inhibition of autophagy. […] LC3-I is normally converted into LC3-II (LC3-I covalently bound to phosphatidylethanolamine) during autophagosome formation but is converted back to LC3-I by protease cleavage during autophagosome maturation.
as §1
Slides were plated on coverslips and allowed to adhere for 24 hours. After adherence, cells were treated with drug for 24 hours. After treatment, drug was removed and cells were washed once in PBS. Cells were labeled with a […] concentration of autofluorescent marker monodansylcadaverine (MDC) in PBS for 10 min at 37 C. Cells were fixed in 4% formaldehyde for 15 min at room temperature. Cells were washed in PBS 2×5 min, and mounted on slides using Dako mounting media with dapi. Coverslips were sealed with clear nail polish and imaged with 3DHistech MIDI Scanner as described above.

[3] = test system: mouse embryo fibroblasts (MEFs) Atg5+/+; test: Autophagy induction (lipidation of LC3) in Atg5+/+ MEFs; format: cell-based
[4] = test system: Atg5 deficient cells (Atg5−/−); test: Autophagy induction in Atg5 deficient MEFs; format: cell-based, mouse
[5] = test system: ACHN xenografts; test: ACHN xenograft study; format: in vivo
Description: (§2) 6-week old mice were utilized for human renal cell carcinoma xenografts. For both ACHN and SN12C cell lines 2×10^6 cells were diluted in 50 μl of PBS and 50 μl of Matrigel (BD Biosciences) and were injected subcutaneously into the right and left flank of each mouse. Tumors were monitored until they reached an average size of 50-80 mm3 (approximately 2 weeks), at which point treatments were begun. […] MK2206 (60 mg/kg/day) were administered by oral gavage 2-3 day/week. […] Tumors and mouse weights were measured twice weekly. At least 6-8 mice per treatment group were included. All mice were euthanized using CO2 inhalation followed by cervical dislocation per institutional guidelines at Oregon Health and Science University. Experiments were approved by the Institutional Animal Care and Use Committee at OHSU.
(§3) Immunostaining was performed following deparaffinization and rehydration of slides. Antigen retrieval was performed in a pressure cooker using citrate buffer (pH 6.0) for 4 min. Nonspecific binding was blocked using Vector mouse IgG blocking serum 30 min at room temperature. Samples were incubated at room temperature with rabbit monoclonal antibodies pS6 (CST #5364) cleaved caspase 3 (CST#9661), and Ki67 (Dako#M7240).
(§4) Slides were developed with Vector Immpress rabbit IgG (#MP7401) and Vector Immpress mouse IgG (#MP7400) for 30 min at room temperature. Chromogenic detection was performed using Vector Immpact DAB (#SK4105) for 3 min. Slides were counterstained with hematoxylin. A 3DHistech MIDI Scanner (Perkin Elmer) was used to capture whole slide digital images with a 20× objective. Images were converted to into MRXS files and computer graphic analysis was completed using inForm 1.4.0 Advanced Image Analysis Software (Perkin Elmer).
Mouse tumor size was analyzed by 2-way ANOVA with time and drug as factors, using GraphPad Prism. Mouse weight during treatment was analyzed by repeated measures 2-way ANOVA, with time and drug as factors. A P value less than 0.05 was considered statistically significant. Immunohistochemistry: P-values were calculated using one-way ANOVA, with Bonferroni's multiple comparison test. * denotes P<0.05, ** denotes P<0.01, and *** denotes P<0.001 throughout this disclosure. Metabolite fold-changes were computed and visualized in Python script, using the openpyxl package (for importing Excel files) and the matplotlib package (for visualizing fold changes).

[6] = test system: SN12C xenografts; test: SN12C xenograft study; format: in vivo
Description: as §2, §3
as §4, with “Images were converted to into MRXS files and computer graphic analysis was completed using inForm 1.4.0 Advanced Image Analysis Software (Perkin Elmer).” left out
Mouse tumor size was analyzed by 2-way ANOVA with time and drug as factors, using GraphPad Prism. Mouse weight during treatment was analyzed by repeated measures 2-way ANOVA, with time and drug as factors. […] Immunohistochemistry: P-values were calculated using one-way ANOVA, with Bonferroni's multiple comparison test. * denotes P<0.05, ** denotes P<0.01, and *** denotes P<0.001 throughout this disclosure. […]

[7] = test system: ACHN cells; test: Cellular respiration (XF96 Seahorse, ECAR and OCR); format: cell-based, human; conditions: XF-96 Extracellular Flux Analyzer
Description: Oxygen consumption and extracellular acidification rates were carried out in a XF96 Seahorse Analyzer (Seahorse Bioscience, Billerica, Mass., USA). Cells were plated in the wells of 96-well plates (8×10^3 cells/well; XF96 plates, Seahorse Bioscience, North Billerica, Mass.) and incubated at 37° C. overnight. The next day, cells were treated with indicated drugs for 24 hours and then the medium was changed to XF Assay Medium and loaded with glucose, oligomycin, and 2-DG, respectively, as manufacture's recommendation.

[8] = test system: Atg5+/+ murine embryonic fibroblasts; test: Lipid droplet number in Atg5+/+ MEFs; format: cell-based, mouse; conditions: 24 hr
Description: Cells were grown on coverslips then treated with drug for 24 hours. Cells were fixed in 4% paraformaldehyde for 15 min, rinsed with PBS. Cells were washed with a 1% saponin solution for 15 min at room temperature then washed several times in PBS to remove detergent. Cells were then incubated in Bodipy (ThermoFisher #D3922) at a final concentration of 1 uM for 10 min. Bodipy was removed and slides were rinsed with PBS then air dried and mounted on slides using Dako mounting media with Dapi.

[9] = test system: MPN patients; conditions: human, in vivo; cited from earlier work
[10] = transmission electron microscopy

With `N#CCNC(=O)c1ccc(-c2ccnc(Nc3ccc(N4CCOCC4)cc3)n2)cc1` [CYT387] as the compound, how does the “phosphorylation of JAK and STAT3” value [1] read?
The value was “effective in suppressing the phosphorylation of JAK and STAT3”.

What about the “p62 protein expression and phosphorylated-S6 levels by immunofluorescence staining” value ([2]; cells on coverslips) of the same compound?
Its value is “decreased p62 protein expression and phosphorylated-S6 levels”.

And the “phosphorylation of Y705-STAT3” value ([2]; immunoblot)?
The value was “decrease in phosphorylation of Y705-STAT3”.

And the LC3-II levels ([2]; immunoblot, more pronounced with E64D/pepstatin)?
The LC3-II levels was “increased LC3-II levels”.

And the MDC autoflorescence ([2]; monodansylcadaverine staining)?
Its MDC autoflorescence is “increased MDC autoflorescence”.

And the “time to reduction in LC3B lipidation after removal of drug” value ([2]; reversal of autophagy)?
The value was at most 24 h.

What about the “mChery-EGFP-LC3 reporter of autophagic flux” value ([2]; stably expressed reporter) of the same compound?
Its value is “decreased expression of green-yellow cells and increased expression of red cells”.

And the “number of double-membraned autophagosomes” value [2, 10]?
Its value is “increased the number of double-membraned autophagosomes”.

And the “number of mitochondria and lipid droplets” value [2, 10]?
Its value is “increased number of mitochondria and lipid droplets”.

What about the “autophagy as seen by the lipidation of LC3” value [3] of the same compound?
The value was “induce autophagy in a dose dependent manner”.

What about the autophagy induction [4] of the same compound?
The autophagy induction was “did not induce autophagy”.

What about the “apoptosis (cleaved-caspase3) in tumors” value ([5]; ACHN xenograft tumors) of the same compound?
Its value is “minimal impact on apoptosis”.

What about the “antitumor effect of single agent” value ([5]; ACHN, CYT387 50 mg/kg/day or MK2206 60 mg/kg/day oral gavage) of the same compound?
Its value is “exhibited antitumor effect”.

And the “number of adipophilin-positive LDs in tumors” value ([5]; treatment day 40, ACHN xenograft tumors, CYT387<MK2206<CYT387+MK2206, p=0.0046)?
Its value is “significantly and incrementally increased”.

What about the “apoptosis (cleaved-caspase3) in tumors” value ([6]; SN12C xenograft tumors) of the same compound?
The value was “minimal impact on apoptosis”.

And the “antitumor effect of single agent” value ([6]; SN12C, CYT387 50 mg/kg/day or MK2206 60 mg/kg/day oral gavage)?
The value was “exhibited antitumor effect”.

And the ECAR [7]?
Its ECAR is “significantly reduced the ECAR”.

And the LD numbers [8]?
Its LD numbers is “significantly increase LD numbers”.

And the “clinical effect in MPN patients” value [9]?
The value was “improved splenomegaly and reduced anemia”.
